# Experimental data published in paper PMC8073907, “Peptide targeting of lysophosphatidylinositol-sensing GPR55 for osteoclastogenesis tuning” (Cell Communication and Signaling : CCS, 2021).
# Tests used:
# RAW264.7 cells = test: Filamentous actin (phalloidin) FACS analysis of RAW264.7 cells; type: cell-based, murine; details: 10 µM soybean LPI
# Procedure: For transient interference of Gpr55, RAW264.7 cells were plated at 6 × 10^5 cells/well in six-well plates in growth medium without antibiotics. Twenty-four hours later, the cells were transfected with 250 pmol/well non-targeting small-interfering (si)RNAs (si-NT; siGENOME siRNA Pool #2; D-001206-14; Dharmacon, Chicago, IL, USA) or Gpr55-specific siRNAs (si-GPR55; siGENOME mouse GPR55 SMART pool; M-043590-01; Dharmacon) using Lipofectamine LTX and Plus Reagent, according to the manufacturer instructions. Twenty-four hours later, the cells were plated for the different assays or for RNA extraction. The efficiency of interference was monitored by real-time PCR after 72 h of interference, using the primers listed in the Additional file 1: Table S1. β2-microglobulin was followed as a housekeeping gene.
# Twenty-four hours after plating the RAW264.7 cells at a density of 1.2 × 10^6 cells/well in six-well plates, or 2.5 × 10^5 cells/well in 24-well plates on coverslips, the cells were serum deprived for 2 h and then stimulated while adhered, with LPI in the assay buffer (0.1% faf-BSA, 20 mM HEPES in HBSS^++). Stimulation was blocked by two washes with HBSS^++, and cells on coverslips were processed for immunofluorescence (see below), while the cells in the six-well plates were scraped into cytoskeleton buffer (10 mM 4-morpholineethanesulfonic acid, 150 mM NaCl, 5 mM EGTA, 5 mM MgCl2, 5 mM glucose), for FACS analysis. For the latter, an equal volume of fixation solution (1% Triton X-100, 0.5% glutaraldehyde, in cytoskeleton buffer) was added to the cell suspension and left for 2 min at room temperature. […] Finally, the fixed cells were stained with 33 nM Alexa546-labelled phalloidin for 1 h at room temperature, washed three times (10 min each) with cytoskeleton buffer, suspended in PBS with 3% BSA, and analysed by FACS (FACSCalibur or FACSAria III; Becton Dickinson, Franklin Lakes, NJ).
# ssGPR55-Q87A = test: GPR55-internalisation assay, Q87A mutant (FACS); type: cell-based, human; details: HeLa, 10 µM soybean LPI, 15 min, three independent experiments
# From the text: (§1) The construct of haemagglutinin (HA)-tagged human GPR55 in pcDNA3 (HA-GPR55) was a gift from Prof. K. Mackie, Indiana University, Bloomington, IN, USA [39], while the construct ss-3 × HA-GPR55 in pcDNA3.1 (ssGPR55) with a triple HA tag at the N-terminus and an optimised signal sequence (ss, derived from amino acids 1–33 of the human growth hormone: […]) for efficient surface expression was from Prof. A. Irving, Dundee University, UK [40]. For both constructs, mutations were introduced by site-directed mutagenesis using QuickChange kits (Stratagene, La Jolla, CA, USA), according to the manufacturer instructions. The primers for the K80A mutation were 5′-[…]-3′ and 5′-[…]-3′ (Tm, 70.6 °C), and for Q87A were 5′-[…]-3′ and 5′-[…]-3′ (Tm, 73.1 °C).
# (§2) HeLa cells were plated at 1.5 × 10^5 cells/well in six-well plates in their growth medium without antibiotics. […]
# (§3) For the GPR55-internalisation assay, after stimulation, the HeLa cells were washed twice with cold HBSS^++, stained while adhered with the monoclonal anti-HA antibody (1:1000) in PBS plus 3% BSA for 1 h on ice, washed three times with cold PBS, incubated with the Alexa488-tagged anti-mouse antibody (1:800) in PBS plus 3% BSA for 45 min on ice. […] The collected cells were centrifuged at 300×g, suspended in PBS plus 3% BSA, and analysed by FACS.
# ssGPR55-K80A = test: GPR55-internalisation assay, K80A mutant (FACS); type: cell-based, human; details: ssGPR55-K80A, HeLa; 10 µM soybean LPI, 15 min; three independent experiments
# From the text: as §1, §2, §3
substance,measurement,setting,value
lysophosphatidylinositol [LPI],"mean phalloidin fluorescence on LPI addition, si-GPR55",RAW264.7 cells; si-GPR55 cells,did not increase further on LPI addition
same,"mean phalloidin fluorescence, si-NT",RAW264.7 cells; si-NT cells,significant increase in the mean phalloidin fluorescence
same,maximal increase in phalloidin mean fluorescence,"RAW264.7 cells; wild-type RAW264.7, 15 min, sub-populations #1 and #2, at least five independent experiments",20%
same,reduction of cell-surface level of receptor,ssGPR55-Q87A,15%
same,change of cell-surface level of receptor,ssGPR55-K80A,not changed
